Results: ChEMBL document CHEMBL1132461 (J Med Chem, 1999)
Numbered stars: 1 amine (or outer) side, 2 acyl side, 3 side chain; on linkers, the order of the positions; unused ones are H or OH. Bridge positions count the residues as written; N and C are the ends. Square brackets hold non-standard residues; d marks the D form. Peptide text beside a SMILES is read from it. X2 = O=C([C@@H]1CC[C@@H]([*:3])N1[*:1])[*:2]; X1 = O=C([C@@H]1CC[C@H]([*:3])N1[*:1])[*:2]; hCys = N[C@@H](CCS)C(=O)O

Key:
[1] = biological target: T1, Angiotensin II receptor (AT-1) type-1 (Rattus norvegicus, UniProt P29089+P25095); assay: In vitro inhibitory activity against rat Angiotensin II receptor, type 1 expressed in CHO cells; type: cell-based
T1 sequence (P29089 whole entry): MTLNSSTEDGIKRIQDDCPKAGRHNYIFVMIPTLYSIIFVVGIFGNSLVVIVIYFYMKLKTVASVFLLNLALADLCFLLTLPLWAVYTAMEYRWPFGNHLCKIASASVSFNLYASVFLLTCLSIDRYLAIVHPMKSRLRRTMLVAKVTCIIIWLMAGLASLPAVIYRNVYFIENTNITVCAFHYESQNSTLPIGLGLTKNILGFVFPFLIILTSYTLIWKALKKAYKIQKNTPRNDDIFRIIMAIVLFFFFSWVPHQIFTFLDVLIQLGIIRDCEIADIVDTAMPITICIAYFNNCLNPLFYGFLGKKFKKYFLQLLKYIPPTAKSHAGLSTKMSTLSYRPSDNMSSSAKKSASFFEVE
T1 sequence (P25095 whole entry): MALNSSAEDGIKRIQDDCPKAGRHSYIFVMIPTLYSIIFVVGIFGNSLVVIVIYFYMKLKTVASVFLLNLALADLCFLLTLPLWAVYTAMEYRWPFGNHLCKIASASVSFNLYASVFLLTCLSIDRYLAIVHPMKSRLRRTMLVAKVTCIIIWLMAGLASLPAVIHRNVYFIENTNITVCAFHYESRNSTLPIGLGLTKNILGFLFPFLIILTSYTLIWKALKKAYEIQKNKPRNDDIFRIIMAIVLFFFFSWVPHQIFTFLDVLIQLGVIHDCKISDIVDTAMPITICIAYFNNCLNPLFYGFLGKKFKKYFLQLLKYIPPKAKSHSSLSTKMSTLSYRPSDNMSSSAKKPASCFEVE

[2] = biological target: T1, Angiotensin II receptor (AT-1) type-1; assay: In vitro binding affinity against Angiotensin II receptor, type 1 from rat liver membranes

SMILES	IC50 [1]	Ki [2]
CC(C)[C@H](NC(=O)[C@H](CCCN=C(N)N)NC(=O)[C@@H](N)CC(=O)O)C(=O)N[C@@H](Cc1ccc(O)cc1)C(=O)N[C@H]1CS[C@@H]2CC[C@@H](C(=O)N[C@@H](Cc3ccccc3)C(=O)O)N2C(=O)[C@H](Cc2c[nH]cn2)NC1=O (H-DRVYCH[X2]F-OH; thioether 5-7)	> 10000 nM	–
NC(N)=NCCC[C@H](NC(=O)[C@@H](N)CC(=O)O)C(=O)N[C@H]1CCS[C@H]2CC[C@@H](C(=O)N[C@@H](Cc3c[nH]cn3)C(=O)N3CCC[C@H]3C(=O)N[C@@H](Cc3ccccc3)C(=O)O)N2C(=O)[C@H](Cc2ccc(O)cc2)NC1=O (H-DR[hCys]Y[X1]HPF-OH; thioether 3-5)	800 nM	750 nM
NC(N)=NCCC[C@H](NC(=O)[C@@H](N)CC(=O)O)C(=O)N[C@H]1CS[C@@H]2CC[C@@H](C(=O)N[C@@H](Cc3c[nH]cn3)C(=O)N3CCC[C@H]3C(=O)N[C@@H](Cc3ccccc3)C(=O)O)N2C(=O)[C@H](Cc2ccc(O)cc2)NC1=O (H-DRCY[X2]HPF-OH; thioether 3-5)	> 10000 nM	–
NC(N)=NCCC[C@H](NC(=O)[C@@H](N)CC(=O)O)C(=O)N[C@H]1CS[C@H]2CC[C@@H](C(=O)N[C@@H](Cc3c[nH]cn3)C(=O)N3CCC[C@H]3C(=O)N[C@@H](Cc3ccccc3)C(=O)O)N2C(=O)[C@H](Cc2ccc(O)cc2)NC1=O (H-DRCY[X1]HPF-OH; thioether 3-5)	> 10000 nM	–
NC(N)=NCCC[C@H](NC(=O)[C@@H](N)CC(=O)O)C(=O)N[C@H]1CCSSCC[C@@H](C(=O)N[C@@H](Cc2c[nH]cn2)C(=O)N2CCC[C@H]2C(=O)N[C@@H](Cc2ccccc2)C(=O)O)NC(=O)[C@H](Cc2ccc(O)cc2)NC1=O (H-DR[hCys]Y[hCys]HPF-OH; disulfide 3-5)	0.2 nM	0.19 nM
